In ChEMBL document CHEMBL4229572, “VU6007477, a Novel M1 PAM Based on a Pyrrolo[2,3-b]pyridine Carboxamide Core Devoid of Cholinergic Adverse Events” (ACS Med Chem Lett, 2018):

Tests used:
[1] = Protein binding in rat plasma assessed as unbound fraction at 5 uL measured after 4 hrs by LC-MS/MS based equilibrium dialysis method; assay type: ADME, cell-free
[2] = molecular target: T1, Muscarinic acetylcholine receptor M1 (Homo sapiens, UniProt P11229); assay: (§1) Positive allosteric modulation of human M1 receptor expressed in CHO cells assessed as increase in acetylcholine-induced calcium mobilization pretreated for 2.5 mins followed by acetylcholine addition and measured after 1 min by Fluo-4-AM dye based assay; assay type: functional, cell-based
T1 sequence (P11229 whole entry): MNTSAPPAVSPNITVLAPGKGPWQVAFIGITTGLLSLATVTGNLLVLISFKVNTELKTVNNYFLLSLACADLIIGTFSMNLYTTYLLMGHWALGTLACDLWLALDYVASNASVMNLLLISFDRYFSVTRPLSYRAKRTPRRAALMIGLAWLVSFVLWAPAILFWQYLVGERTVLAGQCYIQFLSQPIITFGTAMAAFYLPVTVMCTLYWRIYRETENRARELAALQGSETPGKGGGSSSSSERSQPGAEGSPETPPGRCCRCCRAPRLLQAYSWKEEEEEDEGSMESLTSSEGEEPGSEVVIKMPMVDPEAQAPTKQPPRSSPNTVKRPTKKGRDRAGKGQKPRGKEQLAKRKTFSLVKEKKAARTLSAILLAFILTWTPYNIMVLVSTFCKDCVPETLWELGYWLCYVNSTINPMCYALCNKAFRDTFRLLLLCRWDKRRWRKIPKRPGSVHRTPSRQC

[3] = molecular target: T2, Muscarinic acetylcholine receptor M1 (Homo sapiens) (UniProt P11229); assay: as §1; assay type: functional, cell-based
T2 sequence (whole entry): T1 sequence (P11229 whole entry)

[4] = molecular target: Muscarinic acetylcholine receptor M3 (Homo sapiens, UniProt P20309); assay: Positive allosteric modulation of human M3 receptor expressed in CHO cells assessed as increase in acetylcholine-induced calcium mobilization pretreated for 2.5 mins followed by acetylcholine addition and measured after 1 min by Fluo-4-AM dye based assay; assay type: functional, cell-based
[5] = Ratio of unbound brain to plasma concentration in C57BL/6J mouse at 100 mg/kg, ip after 1 hr by LC-MS/MS analysis; assay type: ADME, organism-based; conditions: brain and plasma, read-out: K(p,uu,brain)
[6] = Protein binding in human plasma assessed as unbound fraction at 5 uL measured after 4 hrs by LC-MS/MS based equilibrium dialysis method; assay type: ADME, cell-free
[7] = molecular target: T3, Muscarinic acetylcholine receptor M4 (Homo sapiens, UniProt P08173); assay: Positive allosteric modulation of human M4 receptor expressed in CHO cells co-expressing Gqi5 assessed as increase in acetylcholine-induced calcium mobilization pretreated for 2.5 mins followed by acetylcholine addition and measured after 1 min by Fluo-4-AM dye based assay; assay type: functional, cell-based
T3 sequence (P08173 whole entry): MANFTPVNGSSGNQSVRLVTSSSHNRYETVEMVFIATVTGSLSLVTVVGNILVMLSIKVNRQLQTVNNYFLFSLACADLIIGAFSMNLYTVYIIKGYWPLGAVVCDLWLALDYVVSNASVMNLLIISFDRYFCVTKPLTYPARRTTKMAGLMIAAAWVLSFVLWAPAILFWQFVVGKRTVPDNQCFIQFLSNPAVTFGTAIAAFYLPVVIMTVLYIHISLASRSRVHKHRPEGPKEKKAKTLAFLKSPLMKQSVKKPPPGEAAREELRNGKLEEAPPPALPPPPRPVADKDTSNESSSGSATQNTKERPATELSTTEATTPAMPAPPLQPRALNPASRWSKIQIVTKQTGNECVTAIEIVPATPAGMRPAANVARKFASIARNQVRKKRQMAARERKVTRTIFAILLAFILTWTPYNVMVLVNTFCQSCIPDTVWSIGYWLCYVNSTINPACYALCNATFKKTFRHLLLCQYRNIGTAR

Muscarinic acetylcholine receptor M3, sequence (P20309 whole entry): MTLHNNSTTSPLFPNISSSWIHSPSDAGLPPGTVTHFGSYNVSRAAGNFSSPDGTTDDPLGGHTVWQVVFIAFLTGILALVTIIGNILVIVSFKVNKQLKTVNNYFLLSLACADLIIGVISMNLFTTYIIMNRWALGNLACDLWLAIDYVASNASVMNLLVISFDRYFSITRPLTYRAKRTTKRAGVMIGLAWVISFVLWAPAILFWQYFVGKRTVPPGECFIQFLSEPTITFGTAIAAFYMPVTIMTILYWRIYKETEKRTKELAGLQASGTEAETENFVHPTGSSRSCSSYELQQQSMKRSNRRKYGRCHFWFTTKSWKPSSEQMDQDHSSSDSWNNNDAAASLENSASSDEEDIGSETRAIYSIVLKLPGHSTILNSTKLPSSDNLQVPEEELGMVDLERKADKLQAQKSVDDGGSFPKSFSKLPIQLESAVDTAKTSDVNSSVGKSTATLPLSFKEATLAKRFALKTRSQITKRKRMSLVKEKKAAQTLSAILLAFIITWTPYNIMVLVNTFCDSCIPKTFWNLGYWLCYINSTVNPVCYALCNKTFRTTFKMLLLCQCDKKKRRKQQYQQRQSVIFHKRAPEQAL

Cn1cc(-c2ccc(Cc3cc(C(=O)NC4CCOCC4)nc4c3ccn4C)cn2)cn1
fraction unbound at 4 h, 5 uL [1]: 0.06 | EC50 [2]: 0.32 µM | %max [3]: 84% | EC50 [4]: > 30 µM | Kp uu at 1 h [5]: 0.18 | fraction unbound at 4 h, 5 uL [6]: 0.04 | EC50 [7]: > 30 µM
